{"source": "patent US20200270309A1", "about": "“MALEIMIDE GROUP-MODIFIED ANGIOGENESIS INHIBITOR HM-1 AND USE THEREOF” (NANJING ANJI BIOLOGICAL TECHNOLOGY CO., LTD, priority 2017, published 2020)", "key": {"[1]": {"tested_on": "xylene-induced ear swelling", "assay": "Xylene-induced mouse ear swelling", "assay_type": "in vivo", "conditions": "Kunming mice, positive control, dose 200 mg/kg, once a day for 5 days", "method": "Kunming mice were taken, a normal saline group was taken as a blank control group, an aspirin group (200 mg/kg) was taken as a positive control group, and X1-X90 administration groups were taken as test groups. The mice were injected once a day for 5 consecutive days. The blank control group was given an equal volume of normal saline. One hour after the last administration, 0.05 mL of xylene was applied to both sides of the right ear of each mouse to cause inflammation, while no drug was applied to the left ear as a normal ear. Two hours later, the mice were put to death by dislocation. Two ears were cut along the auricle. Ear pieces were taken with a puncher and weighed, and the swelling degree and the swelling rate were calculated. Swelling degree=right ear piece weight-left ear piece weight, swelling rate=(swelling degree/left ear piece weight)*100%. Statistical t-test was conducted on the experimental results. *P<0.05 indicates significant difference, and **P<0.01 indicates extremely significant difference."}, "[2]": {"tested_on": "Esophageal cancer tumor cell line", "assay": "MTT proliferation inhibition, esophageal cancer", "assay_type": "cell-based, human", "conditions": "48 h, mean ±SD"}, "[3]": {"tested_on": "Pancreatic cancer tumor cell line", "assay": "MTT proliferation inhibition, pancreatic cancer", "assay_type": "cell-based, human", "conditions": "48 h, mean ±SD"}, "Brain tumor cell line": {"tested_on": "Brain tumor cell line", "assay": "MTT proliferation inhibition, brain tumor", "assay_type": "cell-based, human", "conditions": "48 h, mean ±SD"}, "[4]": {"tested_on": "Thyroid cancer tumor cell line", "assay": "MTT proliferation inhibition, thyroid cancer", "assay_type": "cell-based, human", "conditions": "48 h, mean ±SD"}, "[5]": {"tested_on": "Head and neck cancers tumor cell line", "assay": "MTT proliferation inhibition, head and neck cancers", "assay_type": "cell-based, human", "conditions": "48 h, mean ±SD"}, "[6]": {"tested_on": "carrageenan-induced toe swelling", "assay": "Carrageenan-induced toe swelling in rats", "assay_type": "in vivo", "conditions": "SD rats, Dex 10 mg/kg once a day for 3 d", "method": "The rats were injected once a day, and the model group was given the same volume of normal saline for 3 d and fed normally. […] The foot swelling degree was calculated according to the following formula: foot swelling degree (mL)=foot volume after inflammation-foot volume before inflammation. The number of milliliters of overflow liquid was recorded (method: a ballpoint pen is used to circle the protruding point of the right joint as a measurement mark, and the right hind feet of each rat are sequentially placed into the volume measurer, so that the hind limbs are exposed outside the barrel, and the immersion depth is at the coincidence of the circle and the liquid level. After the foot enters the liquid, the liquid level rises, and the volume of overflow liquid is the volume of the right hind foot of the rat, and the normal volume of the right hind foot of each rat is measured in sequence)."}, "splenic lymphocytes": {"tested_on": "splenic lymphocytes", "assay": "Proliferation of splenic lymphocytes in mice (ConA, MTT)", "assay_type": "cell-based", "conditions": "dose 20 μM (Dex group), mouse splenic lymphocytes, 48 h", "method": "Spleens of mice were taken out under aseptic conditions, washed with blank 1640 culture medium 3 times, ground with a 5 mL syringe core, filtered with a 200-mesh sieve, made into a single cell suspension. The suspension was centrifuged (1000 rpm×5 min), and supernatant was removed. Red blood cells were lysed by Tris-NH4Cl, and placed in ice water bath for 4 min and centrifuged (1000 rpm×5 min). The supernatant was removed, and the cells were washed twice with sterile PBS. Finally, RPMI 1640 culture solution (5 mL) containing 10% calf serum was added to suspend the cells. The cells were counted and the cell concentration was adjusted to 5×10^6 cells/mL, and the cells were cultured in a 96-well culture plate.\nBlank control group, concanavalin A (ConA) group and dexamethasone (Dex) group were set in the experiment, and polypeptide X1-X90 groups were set as test groups. After 100 μL of splenic lymphocytes suspension per well was added into each group, 100 μL of blank 1640 culture solution was added into the blank control group, ConA was added into the ConA group, Dex was added into the Dex group, and ConA was added into the test groups on the basis of adding different concentrations of polypeptides X1-X90. The cells were static cultured at 37° C. in a cell incubator for 48 h. After the cultivation was completed, 20 μL of MTT was added to each well, and the cultivation was continued for 4 h. Finally, all the solutions in each well were discarded. 100 μL DMSO was added to each well and shaken, and the OD value at 570 nm was detected with a microplate reader. Five parallel experiments were set in each well."}, "[7]": {"tested_on": "IL-1β production by mouse peritoneal macrophages", "assay": "IL-1β production by mouse peritoneal macrophages (ELISA)", "assay_type": "cell-based", "conditions": "dose 20 μM", "method": "Mice were injected intraperitoneally with 1 mL of broth culture medium (containing 6% of starch). Three days later, mice peritoneal macrophages were taken aseptically and washed twice with 1640 culture medium, and the cell concentration was adjusted to 2×10^6 cells/mL. The solutions were injected into 24-well culture plates at 1 mL per well. The cells were incubated in a cell incubator for 3 h and vibrated once every 30 min to make the cells fully adhere to the wall. Then, the cells were washed twice with a culture solution to remove non-adhered cells. PBS was added to the blank group, positive drug Dex was added to the positive group, no drug was added to the model group, and polypeptides X1-X90 with low, medium and high concentrations were added to the test groups; and the cells were continuously cultured for 48 h after administration, and then centrifuged at 1000 r/min for 15 min. The supernatant was collected as a sample to be tested for IL-1β activity."}, "HUVECs": {"tested_on": "HUVECs", "assay": "Transwell migration inhibition on HUVECs", "assay_type": "cell-based, human", "conditions": "dose 0.2 μM"}, "[8]": {"tested_on": "human retinal capillary endothelial cells (HRCECs)", "assay": "MTT proliferation inhibition on HRCECs", "assay_type": "cell-based", "conditions": "48 h, dose 0.5 μM (positive control)", "method": "An MTT method was used to detect the inhibitory activity of the angiogenesis inhibitor polypeptide on proliferation of HRCECs. HRCECs were digested and collected with trypsin after being cultured in an incubator at 37° C. with 5% CO2 to a density of 90% or more. The cells were resuspended with a culture solution and counted under a microscope, the cell concentration was adjusted to 3.0×10^4 cells/mL, and the cell suspension was inoculated into a 96-well plate at 100 μL/well, and cultured overnight in an incubator at 37° C. with 5% CO2. After the cells were completely adhered to the wall, cells with the addition of the angiogenesis inhibitor polypeptide were used as administration groups, cells with the addition of Avastin were used as a positive control group, and cells with the addition of culture solution without any drugs were used as a blank control group. The cells were diluted to respective predetermined concentrations with the culture solution. The diluent were added into 96-well plates respectively at 100 μL per well, and the cells were cultured at 37° C. for 48 h in an incubator with 5% CO2. 20 μL of 5 mg/mL MTT was added into each well of the 96-well plate, and the cultivation was continued for 4 h. The culture medium was removed, and 100 μL of DMSO was added to each well for dissolution. The absorbance was measured at a detection wavelength of 570 nm and a reference wavelength of 630 nm using a microplate reader, and the PIR was calculated by the formula as follows:\nPIR (%)=1−administration group/negative group\nThe experiment was repeated independently three times. The results were expressed as mean±SD, and statistical T test was conducted. *P<0.05 indicates significant difference, and **P<0.01 indicates extremely significant difference."}}, "note": "Marks after values point to notes of the source that are not given here.", "data": [{"compound": "CC(=O)Oc1ccccc1C(=O)O", "note": "[Aspirin]", "values": [{"measurement": "Swelling degree (mg)", "setting": "[1]", "value": "3.08 ± 0.31** mg"}, {"measurement": "inhibition at 200 mg/kg", "setting": "[1]; Mus musculus, 120 h, read-out: Inhibition rate (%)", "value": 51, "unit": "%"}]}, {"compound": "CC(=O)O[C@@]12CO[C@@H]1C[C@H](O)[C@@]1(C)C(=O)[C@H](O)C3=C(C)[C@@H](OC(=O)[C@H](O)[C@@H](NC(=O)OC(C)(C)C)c4ccccc4)C[C@@](O)([C@@H](OC(=O)c4ccccc4)[C@H]21)C3(C)C", "note": "[Docetaxel]", "values": [{"measurement": "PIR (%)", "setting": "[2]", "value": 53.43, "unit": "%"}, {"measurement": "PIR (%)", "setting": "[3]", "value": 45.92, "unit": "%"}, {"measurement": "PIR (%)", "setting": "Brain tumor cell line", "value": 70.69, "unit": "%"}, {"measurement": "PIR (%)", "setting": "[4]", "value": 73.75, "unit": "%"}, {"measurement": "PIR (%)", "setting": "[5]", "value": 55.66, "unit": "%"}]}, {"compound": "C[C@@H]1C[C@H]2[C@@H]3CCC4=CC(=O)C=C[C@]4(C)[C@@]3(F)[C@@H](O)C[C@]2(C)[C@@]1(O)C(=O)CO", "note": "[Dex]", "values": [{"measurement": "Swelling degree 1 h", "setting": "[6]; 1 h after carrageenan", "value": "0.22 ± 0.10", "unit": "mg"}, {"measurement": "Swelling degree 3 h", "setting": "[6]; 3 h after carrageenan", "value": "0.24 ± 0.11", "unit": "mg"}, {"measurement": "Swelling degree 5 h", "setting": "[6]; 5 h after carrageenan", "value": "0.29 ± 0.11", "unit": "mg"}, {"measurement": "Swelling degree 7 h", "setting": "[6]; 7 h after carrageenan", "value": "0.23 ± 0.08", "unit": "mg"}, {"measurement": "A570 nm/A630 nm", "setting": "splenic lymphocytes", "value": "0.3918 ± 0.1127"}, {"measurement": "Inhibition rate (%)", "setting": "splenic lymphocytes", "value": 52.65, "unit": "%"}, {"measurement": "Inhibition rate", "setting": "[7]; IL-1β production, vs model group", "value": 62.95, "unit": "%"}, {"measurement": "IL-1β", "setting": "[7]; mouse peritoneal macrophages, 48 h, ELISA", "value": "352.06 ± 17.29", "unit": "pg/mL"}]}, {"compound": "Avastin: positive control [reference compound]", "values": [{"measurement": "Inhibition rate (%)", "setting": "HUVECs; HUVEC migration vs blank control", "value": 60.92, "unit": "%"}, {"measurement": "Cell migration number (Mean ± SD)", "setting": "HUVECs; HUVECs, transwell, 24 h", "value": "418.92 ± 61.42"}, {"measurement": "Cell migration number (Mean ± SD)", "setting": "HUVECs; 24 h", "value": "418.92 ± 61.42"}, {"measurement": "Inhibition rate (migration)", "setting": "HUVECs; 24 h", "value": 60.92, "unit": "%"}, {"measurement": "Inhibition rate (%)", "setting": "[8]", "value": 67.30, "unit": "%**"}, {"measurement": "A570 nm-A630 nm", "setting": "[8]; mean±SD", "value": "0.4325 ± 0.01108"}]}]}
